Test results reported in a melting point compilation (Tetko et al.; mined from patent text by program, amines drawn as free bases though some values may be those of a salt).

| melting point [°C] | Structure (SMILES) |
| --- | --- |
| 145 | CNC(=O)n1sc(OCc2ccc(Cl)cc2)nc1=O |
| 146 to 148 | COC(=O)c1ccc2cc(OC)c(OC)cc2c1-c1ccnc(Br)c1 |
| 125 to 129 | O=C1N(CCN2CCCC2)CCN1c1ccc(-c2nnc(CSCCOc3ccccc3)o2)cc1 |
| 219 to 221 | CC1(C)CC(Nc2nc(NC3CC(C)(C)NC(C)(C)C3)nc(NC3CC(C)(C)NC(C)(C)C3)n2)CC(C)(C)N1 |
| 136 to 138 | CCOC(=O)C=Cc1ccc(NC(=O)Oc2ccccc2)cc1 |
| 161 to 164 | COc1ccc(CNc2nc(Cl)c3ncn(Cc4ccc(OC)cc4)c3n2)cc1 |
| 168 to 170 | Cc1ccc(C(=O)Nc2ccc(CN3CCCC3)c(C(F)(F)F)c2)cc1Br |
| 150 to 152 | COc1ccnc(CCc2nc3cc(C)cnc3[nH]2)c1 |
| 195 to 197 | CN(c1ncnc2c1ncn2C1OC(CO)C(O)C1O)n1cccc1 (stereo not given) |
| 183 to 185 | COc1ccc(C#N)cc1/C=C/C(=O)Sc1nc2ccccc2s1 |
| 40 to 41 | Nc1cc(Cl)c(OCC(F)(F)F)cc1F |
| 205 to 206 | O=C(O)c1ccccc1Nc1ccc(I)cc1 |
| 59 to 60 | CCCc1ccc(C(O)(c2c(C)cc(C)c(C)c2OC)C(C)C)cc1 (stereo not given) |
| 109 to 110 | Cn1nc(C(F)(F)F)cc1Oc1cccc(-c2nc(C(F)(F)C(F)(F)F)no2)n1 |
| 126 to 127 | C[C@@H]1Cc2cc3c(cc2C(c2ccc([N+](=O)[O-])c(Cl)c2)=NN1C(=S)NN)OCO3 |
| 203 to 208 | O=S1(=O)c2ccccc2N(c2ccc(OCc3ccccc3)cc2)c2ccccc21 |
| 165 to 169 | N[C@@H](Cc1c[nH]c2ccccc12)C(=O)N(N)C(=O)[C@H](Cc1c[nH]cn1)NC(=O)[C@@H]1CCC(=O)N1 |

| melting point [°C] | Structure (SMILES) |
| --- | --- |
| 162 | O=C(c1ccccc1)c1ccc2sc(NCCCO)nc2c1 |
| 99 to 104 | CC(=S)N(C)Cc1ccc(F)cc1 |
| 268 to 270 | CC(C)COc1ccc(-c2nc3cccc(C(=O)O)c3s2)cc1C#N |
| 169 to 170 | Cc1ccc(C2=Nc3ccccc3N=C(N3CCN(C)CC3)C2)cc1 |
| 98 to 99 | COC(=O)COc1ccc([N+](=O)[O-])cc1 |
| > 260 | O=C1c2ccccc2C(=O)c2sc(-c3cc(Br)co3)nc21 |
| 115 to 116 | CS(=O)(=O)On1nnc2ccc([N+](=O)[O-])cc21 |
| 95 to 96 | COc1cc(C(=O)NN)cc(OC)c1OCCCN(C)C |
| 98 to 100 | CCOC(=O)C=N[C@@H]1c2cc(C#N)ccc2OC(C)(C)[C@H]1O (relative stereo) |
| 130 to 132 | CN(C(=O)Nc1nc(OCC(F)(F)F)nc(OCC(F)(F)F)n1)c1ccc(C(F)(F)F)cc1 |
| 223 to 225 | O=Nc1c(-c2ccccc2)nc2ncccn12 |
| 136 to 138 | COC(=O)c1ccc(NC2COC(=O)C2)cc1 (stereo not given) |
| 145 to 149 | COc1cccc(C2C(C(=O)O)CC(=O)N2c2ccccc2)c1 (stereo not given) |
| 166 | O=C1NC(O)c2cccn2-c2sccc21 (stereo not given) |
| 107 to 110 | O=S(=O)(CCCCCOc1ccc(C2=C(c3ccccc3)CCCc3cc(OC4CCCCO4)ccc32)cc1)CCCC(F)(F)C(F)(F)F (stereo not given) |
| 192 to 193 | Cc1cc(F)ccc1[C@@H]1CN(C2=CC(=O)CC2)CC[C@H]1C(=O)N(C)Cc1cc(C(F)(F)F)cc(C(F)(F)F)c1 (relative stereo) |
| 173 to 174 | Cc1ccc(S(=O)(=O)Nc2ccc([N+](=O)[O-])cc2C)cc1 |

| Structure (SMILES) | melting point [°C] |
| --- | --- |
| Brc1ccc2[nH]cc(C3=CCNCC3)c2c1 | 202 to 204 |
| COc1cc(C2C3=C(COC3=O)Nc3ccc4cc(C)[nH]c4c32)cc(OC)c1OC (stereo not given) | 280 to 281 |
| CC=CC=CC(=O)N1CC1C#N (stereo not given) | 56 to 58 |
| O=[N+]([O-])C(=Cc1cccs1)C1=NCCN1Cc1ccc(Cl)nc1 | 189 to 190 |
| CC1N=C(c2ccccc2)c2cc(Cl)ccc2NC1=O (stereo not given) | 224 |
| CCOC1CCC2(C)C(=CCC3C4CCC(=O)C4(C)CCC32)C1 (stereo not given) | 146 to 147 |
